Results on 2 compounds are retold here after paper PMC4076210, “Discovery of Novel AKT Inhibitors with Enhanced Anti-Tumor Effects in Combination with the MEK Inhibitor” (PLoS ONE, 2014).

The structures appear in SMILES notation.

Details of data set [1]: method as in PMID 18381444. The settings on record: mice; cited from earlier work.
The subject of a further data set is CAPAN-2 tumor xenografts. As to the kind of experiment: Xenograft tumor growth inhibition, combination with MEK inhibitor. It counts as in vivo, mouse. The settings on record: 0.3 mg/kg, day 69. As for the experimental part:
(§1) Tumors were initiated by injecting either cells (SKOV3, CAPAN-2 and HPAC) or a tumor fragments (BT474) subcutaneously into 6–8 week female athymic nude (SKOV3) and SCID (all others) mice. Once tumors reached between 120 and 300 mm^3, mice were randomized according to tumor volume into groups of n = 7–10 mice per treatment. GSK2110183 and GSK2141795 were administered daily at various doses by oral gavage. In combination experiments, GSK1120212 was also administered daily by oral gavage. Tumor volumes and body weight were measured twice weekly, tumor volume was measured with calipers and calculated using equation: […]. Results are represented as percent inhibition on completion of dosing = 100 x [1- average growth of drug-treated population/average growth of vehicle-treated control population].

The next data set relates to HPAC tumor xenografts. The description is as above. The settings on record: 0.3 mg/kg daily, day 42. The data set is classed as in vivo, mouse. On the procedure:
as §1

`CCn1c(-c2nonc2N)nc2c(C#CC(C)(C)O)ncc(OC[C@H]3CCCNC3)c21` [GSK690693]: in data set [1], the “hyperglycemia (blood glucose)” value was around 500 mg/dL.

Usually TGI stands for how far tumour growth fell short of that in controls. With `CC(=O)Nc1cccc(-n2c(=O)n(C3CC3)c(=O)c3c(Nc4ccc(I)cc4F)n(C)c(=O)c(C)c32)c1` [GSK1120212, trametinib, reference compound], the TGI in the data set with CAPAN-2 tumor xenografts was 90%; in the data set on HPAC tumor xenografts, 65%.
